Each block holds one molecule with its values, some of them ahead of it.
Legend:
[1] = target: T1, h15-LOX-2 (Homo sapiens, UniProt O15296); test: Hydrogen/deuterium exchange mass spectrometry of h15-LOX-2; settings: 20 μM inhibitor; peptides 173-184 and 184-191 (helix α2); short time scales (< 10 min)
T1 sequence (O15296 1-676): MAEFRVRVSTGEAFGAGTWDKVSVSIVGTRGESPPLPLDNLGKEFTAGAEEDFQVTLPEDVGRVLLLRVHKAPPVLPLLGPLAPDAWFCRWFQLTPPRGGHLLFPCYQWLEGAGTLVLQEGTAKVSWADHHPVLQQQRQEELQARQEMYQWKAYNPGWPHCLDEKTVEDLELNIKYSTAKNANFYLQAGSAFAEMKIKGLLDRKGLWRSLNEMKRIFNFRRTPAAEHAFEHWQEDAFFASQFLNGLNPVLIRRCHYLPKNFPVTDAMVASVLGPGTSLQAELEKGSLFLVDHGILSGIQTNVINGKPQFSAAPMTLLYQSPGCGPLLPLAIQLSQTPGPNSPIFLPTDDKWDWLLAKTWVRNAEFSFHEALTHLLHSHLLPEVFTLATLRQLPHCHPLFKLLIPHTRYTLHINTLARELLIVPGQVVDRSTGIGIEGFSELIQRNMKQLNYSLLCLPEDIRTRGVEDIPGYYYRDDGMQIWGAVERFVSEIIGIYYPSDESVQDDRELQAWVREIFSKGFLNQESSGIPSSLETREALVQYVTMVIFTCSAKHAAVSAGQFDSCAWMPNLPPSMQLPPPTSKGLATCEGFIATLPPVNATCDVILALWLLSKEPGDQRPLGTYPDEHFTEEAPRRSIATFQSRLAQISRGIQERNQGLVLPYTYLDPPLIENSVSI

[2] = target: T1, h15-LOX-2; test: Study of inhibitors as substrates of h15-LOX-2; type: biochemical; settings: 20 μM inhibitor, absence of AA; UV-Vis and RP-HPLC
[3] = target: T1, h15-LOX-2; test: Steady-state inhibition kinetics of h15-LOX-2; type: biochemical; settings: for mode of inhibition: against h15-LOX-2
[4] = target: T1, h15-LOX-2; test: Lipoxygenase UV-Vis-based IC50 assay, h15-LOX-2; type: biochemical
[5] = target: the molecule itself; test: SEC

- IC50 [4]: > 100000 nM
Molecule: Fc1ccc(CSc2nccn2-c2ccccc2)cc1 [analog 2, 2-((4-fluorobenzyl)thio)-1-phenyl-1H-imidazole]

- substrate activity with h15-LOX-2 [2]: not substrates
- mode of inhibition [3]: mixed-type
Molecule: CCc1ccc(CSc2nccn2-c2ccccc2)cc1 [Inhibitor 327206]

Further lines, the molecule ahead of its results:

Molecule: FC(F)(F)c1ccc(CSc2nccn2-c2ccccc2)cc1 [Inhibitor 327069]
- change in H/D exchange vs h15-LOX-2 alone [1]: ≤ 20%
- substrate activity with h15-LOX-2 [2]: not substrates
- Ki [3]: 1200 nM
- mode of inhibition [3]: mixed-type
- enhanced inhibition of 327069 over 536924 ([4]; ratio of IC50 values): ~10 fold

B1: loop mutant (LM) of human epithelial 15-lipoxygenase-2, Mn2+-substituted (enzyme, UniProt O15296 1-676, looked up)
chain: MAEFRVRVSTGEAFGAGTWDKVSVSIVGTRGESPPLPLDNLGKEFTAGAEEDFQVTLPEDVGRVLLLRVHKAGPLAPDAWFCRWFQLTPPRGGHLLFPCYQWLEGAGTLVLQEGTAKVSWADHHPVLQQQRQEELQARQEMYQWKAYNPGWPHCLDEKTVEDLELNIKYSTAKNANFYLQAGSAFAEMKIKGLLDRKGLWRSLNEMKRIFNFRRTPAAEHAFEHWQEDAFFASQFLNGLNPVLIRRCHYLPKNFPVTDAMVASVLGPGTSLQAELEKGSLFLVDHGILSGIQTNVINGKPQFSAAPMTLLYQSPGCGPLLPLAIQLSQTPGPNSPIFLPTDDKWDWLLAKTWVRNAEFSFHEALTHLLHSHLLPEVFTLATLRQLPHCHPLFKLLIPHTRYTLHINTLARELLIVPGQVVDRSTGIGIEGFSELIQRNMKQLNYSLLCLPEDIRTRGVEDIPGYYYRDDGMQIWGAVERFVSEIIGIYYPSDESVQDDRELQAWVREIFSKGFLNQESSGIPSSLETREALVQYVTMVIFTCSAKHAAVSAGQFDSCAWMPNLPPSMQLPPPTSKGLATCEGFIATLPPVNATCDVILALWLLSKEPGDQRPLGTYPDEHFTEEAPRRSIATFQSRLAQISRGIQERNQGLVLPYTYLDPPLIENSVSI
- stoichiometry N [5]: 2

Reference: publication PMC8785688 (Bioorganic & medicinal chemistry, 2021)
